Tests used:
ratOT-R = target: T1, ratOT-R (Rattus norvegicus, UniProt P70536); assay: Functional assay No. 2: inhibition of IP3-synthesis in HEK/EBNA-OTR cells; type: cell-based; conditions: oxytocin 10 nM, [3H]-inositol
T1 construct: expressed in transfected cells; host or cells: HEK/EBNA
T1 sequence (P70536 1-388): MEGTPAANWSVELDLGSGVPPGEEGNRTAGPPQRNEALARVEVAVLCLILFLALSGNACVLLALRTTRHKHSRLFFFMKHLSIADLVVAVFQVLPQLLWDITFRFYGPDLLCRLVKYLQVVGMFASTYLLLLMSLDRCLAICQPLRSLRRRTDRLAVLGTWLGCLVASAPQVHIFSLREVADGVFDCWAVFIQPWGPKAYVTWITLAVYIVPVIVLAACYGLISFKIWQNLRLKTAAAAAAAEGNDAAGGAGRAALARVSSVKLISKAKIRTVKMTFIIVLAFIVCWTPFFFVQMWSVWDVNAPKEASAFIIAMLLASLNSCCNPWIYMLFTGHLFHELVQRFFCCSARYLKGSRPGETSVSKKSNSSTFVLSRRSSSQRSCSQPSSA
From the text: c) Functional Assay No. 2: Inhibition of IP3 (Inositol Tri-Phosphate)-Synthesis in HEK/EBNA-OTR cells
The interaction of OT on the OT-receptor leads to the IP3 synthesis, IP3 being a second messenger for the Ca^2+ release from sarcoplasmic reticulum, involved in the uterine contraction triggering process (see Mitchell, B. F. and Schmid, B. J. Soc. Gynecol. Invest. 2001, 8,122–33).
This assay can be used to show the inhibition of the OT/OT-R mediated IP3 synthesis by using test compounds of formula (I).
Stimulation of the cells: HEK/EBNA OTR (rat or human) cells are plated out-into costar 12-well plates, and equilibrated for 15–24 h with 4 μCi/ml radiolabelled [^3H]-Inositol with 1% FCS (0.5 ml/well) and without inositol supplement. The medium containing the label is aspirated. […]
The amount of the radiolabelled IP3 may be determined through the ensuing work-up. […]
Elution of total IP's: Elution is achieved using 3 ml 1M ammonium formate/0.1M formic acid. […] The amount of [^3H]-IP3 is determined by a scintillating counter.
The ability of compounds of formula(I) to effectively antagonize oxytocin-induced IP3synthesis mediated by the oxytocin receptor, can be assessed using the above described in vitro biological assay.

[1] = target: T2, human Oxytocin (hOT) receptor (Homo sapiens, UniProt P30559); assay: In vitro competition binding assay on hOT receptor with scintillation proximity assay ([125I]-OVTA); conditions: HEK293EBNA membranes expressing hOT receptor, 0.2 nM [125I]-OVTA, SPA; read-out: Binding affinity human OT-R IC50
T2 construct: expressed in transfected cells; host or cells: HEK293EBNA
T2 sequence (P30559 1-389): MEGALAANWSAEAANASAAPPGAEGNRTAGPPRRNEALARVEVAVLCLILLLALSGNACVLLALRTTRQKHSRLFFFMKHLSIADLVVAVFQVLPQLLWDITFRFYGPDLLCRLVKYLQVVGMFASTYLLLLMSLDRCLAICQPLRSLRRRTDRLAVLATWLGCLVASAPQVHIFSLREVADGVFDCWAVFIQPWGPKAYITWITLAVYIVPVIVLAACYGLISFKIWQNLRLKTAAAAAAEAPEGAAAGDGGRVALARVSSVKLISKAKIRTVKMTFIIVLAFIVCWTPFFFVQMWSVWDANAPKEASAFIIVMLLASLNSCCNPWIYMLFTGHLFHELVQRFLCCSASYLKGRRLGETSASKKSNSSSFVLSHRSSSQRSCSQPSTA
Description: a) In Vitro Competition Binding Assay on hOT Receptor with Scintillation Proximity Assay (see Cook, N. D. et al. Pharmaceutical Manufacturing International 1992; p.49–53)
This assay allows to determine the affinity of the test compounds for the human Oxytocin (hOT) receptor. Membranes from HEK293EBNA (cells expressing the hOT receptor) were suspended in buffer containing 50 mM Tris-HCl, pH 7.4, 5 mM MgCl2 and 0.1% BSA (w/v). The membranes (2–4 μg) were mixed with 0.1 mg SPA bead coated with wheat-germ aglutinin (WGA-PVT-Polyethylene Imine beads from Amersham) and 0.2 nM of the radiolabelled [^125I]-OVTA (OVTA being Ornithin Vasoactive, an analogue of OT for competitive binding experiments). Non-specific binding was determined in the presence of 1 μM Oxytocin. The total assay volume was 100 μl. The plates (Corning® NBS plate) were incubated at room temperature for 30 min and counted on a Mibrobeta® plate scintillation counter. Competitive binding was performed in presence of compounds of formula (I) at the following concentrations: 30 μM, 10 μM, 1 μM, 300 nM, 100 nM, 10 nM, 1 nM, 100 pM, 10 pM. The competitive binding data were analysed using the iterative, nonlinear, curve-fitting program, “Prism” (GraphPad Software, Inc).
The ability of the pyrrolidine derivatives of formula (I) to inhibit the binding of ^125I-OVTA to the OT-receptor was assessed using the above described in vitro biological assay. Representative values for some example compounds are given in Table 1, where the binding affinity of the compounds is expressed by the IC50 (μM) which is the concentration upon which 50% inhibition of OT-R is achieved. From these values, it can be derived that said test compounds according to formula (I) do show a significant binding to the oxytocin receptor.

CO/N=C1\C[C@@H](C(=O)OC)N(C(=O)c2ccc(-c3ccccc3C)cc2)C1 [Methyl (2S,4E)-4-(methoxyimino)-1-[(2′-methyl[1,1′-biphenyl]-4-yl)carbonyl]-2-pyrrolidinecarboxylate]
IC50 (ratOT-R): 77 nM | IC50 [1]: 36 nM

CO/N=C1/C[C@@H](C(=O)OC)N(C(=O)c2ccc(-c3ccccc3C)cc2)C1 [Methyl (2S,4Z)-4-(methoxyimino)-1-[(2′-methyl[1,1′-biphenyl]-4-yl)carbonyl]-2-pyrrolidinecarboxylate]
IC50 (ratOT-R): 23 nM | IC50 [1]: 12 nM

From patent publication US7189754B2, “Pyrrolidine ester derivatives with oxytocin modulating activity” (Applied Research Systems ARS Holding NV, priority 2001, dated 2007)
